Molecules are shown by their SMILES.

As usually defined, the EC50 is the concentration giving half of the maximal effect.

Tested on in one data set: not listed separately
In words: Microsomal intrinsic clearance (Clint), mouse. In kind it is in vitro ADME. The conditions noted are these: mouse liver microsomes, 0.5 μM compound. The protocol: (§1) Each test compound (0.5 μM) was incubated with pooled female CDI mouse liver microsomes, pooled male Sprague–Dawley rat microsomes, or pooled mixed gender human liver microsomes (Tebu-Bio, UK; 0.5 mg/mL 50 mM potassium phosphate buffer, pH 7.4) and the reaction started with addition of excess NADPH (8 mg/mL, 50 mM potassium phosphate buffer, pH 7.4). Immediately, at time zero, then at 3, 6, 9, 15, and 30 min, an aliquot (50 μL) of the incubation mixture was removed and mixed with acetonitrile (100 μL) to stop the reaction. Internal standard was added to all samples, and the samples were centrifuged at 1825g for 10 min to sediment precipitated protein. The plates were then sealed prior to UPLC/MS/MS analysis using a Quattro Premier XE (Waters Corporation, USA).
(§2) XLfit (IDBS, UK) was used to calculate the exponential decay and consequently the rate constant (k) from the ratio of peak area of test compound to internal standard at each time point.
Background: Liver microsomes are vesicles of endoplasmic reticulum, rich in cytochrome P450 enzymes.
In the case of `CNC(=O)[C@H]1Cc2ccccc2N1C(=O)Cc1ccc(Cl)c(F)c1` [Compound 45], the “mouse microsomal intrinsic clearance” value was determined as 8.4 mL min^–1 g^–1.
For the compound `CNC(=O)C1Cc2ccccc2N1C(=O)COc1ccc(Cl)c(Cl)c1` (centres unmarked) [Compound 30], the “mouse microsomal intrinsic clearance” value is on record as 9.1 mL min^–1 g^–1.
Turning to `CNC(=O)C1Cc2ccccc2N1C(=O)Cc1ccc(F)c(F)c1` (centres unmarked) [Compound 46], the “mouse microsomal intrinsic clearance” value was found to be 1.9 mL min^–1 g^–1.

Tested on in a further data set: not listed separately
In words: Microsomal intrinsic clearance (Clint), rat. The conditions noted are these: rat liver microsomes, 0.5 μM compound. In kind it is in vitro ADME. How it is done: as §1, §2
Consider `CNC(=O)C1Cc2cc(-c3ccccc3)ccc2N1C(=O)COc1ccc(F)cc1` (centres unmarked) [Compound 61], for which the “microsomal intrinsic clearance, rat” value is 25 mL min^–1 g^–1.

For the next data set, the system named is bloodstream form T. brucei brucei. In words: T. b. brucei whole cell parasite (trypanosome growth) assay. The data set is classed as cell-based, Trypanosoma brucei brucei. To be noted: T. b. brucei EC50, compared to 1 (parent). How it is done: This was conducted as previously described.[27] Cell culture plates were stamped with 1 μL of an appropriate stock concentration of test compound, followed by addition of 200 μL of trypanosome culture (HMI9-T, 10% FCS) to each well at a density of 2000 cells per well (except column 12 receiving media only). […] Potency was carried out using 10-point dose–response curves.
Turning to `CNC(=O)C1Cc2cc(-c3ccncc3)ccc2N1C(=O)COc1ccc(F)cc1` (centres unmarked) [Compound 62], the loss in potency was around 10 fold.
Turning to `CN(C)C(=O)C1Cc2ccccc2N1C(=O)COc1ccc(Cl)cc1` (centres unmarked) [Compound 48], the loss in potency came to 200 fold.
On the same count and under the same terms, the value for `CNC(=O)C1Cc2ccccc2N1C(=O)COCc1ccccc1` (centres unmarked) [Compound 28] was around 70 fold.
On to `CNC(=O)C1Cc2cc(-c3ccccc3)ccc2N1C(=O)COc1ccc(F)cc1` (centres unmarked) [Compound 61], for which the loss in potency is around 10 fold.
Still for that read-out and setting: next, `CNC(=O)C1Cc2ccccc2N1C(=O)COc1ccc(Cl)c(Cl)c1` (centres unmarked) [Compound 30]: 15 fold.

The data set is the same for the next values; noted with them: Trypanosoma brucei, mean of two or more determinations; 69 h + 4 h resazurin; read-out: T. b. brucei EC50.
With `CNC(=O)C1Cc2ccccc2N1C(=O)COc1ccc2ccccc2c1` (centres unmarked) [Compound 18], the EC50 turned out to be 2900 nM.
The same measure, in the same setting: the value for `CNC(=O)C1Cc2ccccc2CN1C(=O)COc1ccc(F)cc1` (centres unmarked) [Compound 66] was 37000 nM; that for `CCNC(=O)C1Cc2ccccc2N1C(=O)CCC1CCCC1` (centres unmarked) [Compound 23] was 990 nM.
On the same count and under the same terms, the value for `CC(C)Oc1ccc(C(=O)N2c3ccccc3CC2C(N)=O)cc1` (centres unmarked) [Compound 25] was above 50000 nM; that for `CNC(=O)C1Cc2cc(-c3ccncc3)ccc2N1C(=O)COc1ccc(F)cc1` (centres unmarked) [Compound 62] was 440 nM.
Turning to `[2H]c1c([2H])c([2H])c(OCC(=O)N2c3ccccc3C[C@@H]2C(=O)NC)c([2H])c1[2H]` [Compound 38], the EC50 is 50 nM.
`CN(C)C(=O)C1Cc2ccccc2N1C(=O)COc1ccc(Cl)cc1` (centres unmarked) [Compound 48]: the concentration for a half-maximal effect (EC50) is 5400 nM.
On the same count and under the same terms, next, `CNC(=O)[C@H]1Cc2cc(F)ccc2N1C(=O)COc1ccc(F)cc1` [Compound 56]: 40 nM; `CCOc1ccc(OCC(=O)N2c3ccccc3CC2C(=O)NC)cc1` (centres unmarked) [Compound 17]: 310 nM; `CNC(=O)C1Cc2ccccc2N1C(=O)COCc1ccccc1` (centres unmarked) [Compound 28]: 1900 nM.
With `CNC(=O)C1Cc2ccccc2N1C(=O)Cc1ccccc1` (centres unmarked) [Compound 21], the EC50 stood at 220 nM.
Turning to `Cc1cccc(OCC(=O)N2c3ccccc3CC2C(N)=O)c1` (centres unmarked) [Compound 24], the EC50 stood at 13000 nM.
The same measure, in the same setting: the value for `CNC(=O)C1Cc2ccccc2N1C(=O)Cc1cccs1` (centres unmarked) [Compound 20] was 660 nM; that for `CNC(=O)C1Cc2ccccc2N1C(=O)COc1cccc(OC)c1` (centres unmarked) [Compound 19] was 450 nM; that for `CNC(=O)C1Cc2cc(-c3ccccc3)ccc2N1C(=O)COc1ccc(F)cc1` (centres unmarked) [Compound 61] was 240 nM.
On the same count and under the same terms, next, `CCNC(=O)C1Cc2ccccc2N1C(=O)COc1cccc(C)c1` (centres unmarked) [Compound 22]: 650 nM; `CNC(=O)[C@H]1Cc2ccccc2N1C(=O)Cc1ccc(Cl)c(F)c1` [Compound 45]: 80 nM.
Same read-out and setting: the value for `CNC(=O)C1Cc2ccccc2N1C(=O)COc1ccc(Cl)c(Cl)c1` (centres unmarked) [Compound 30] was 400 nM.
Take `CNC(=O)C1Cc2ccccc2N1C(=O)Cc1ccc(F)c(F)c1` (centres unmarked) [Compound 46]: the EC50 is 110 nM.

Tested on in another data set: not listed separately
In words: in vitro. The conditions noted are these: human, MRC-5 fibroblasts.
Procedure: Proliferation assays using bloodstream form T. brucei brucei and human MRC-5 fibroblasts were conducted using a modification of the cell viability assay as previously reported.[27],[39]
MRC-5 cells (2000 cells per well) were seeded in 200 μL of DMEM, 10% FCS, and allowed to adhere overnight. One microliter of test compound was added to each well on the day of assay initiation.
The final DMSO level was 0.5% in all cases.
As for `CNC(=O)C1Cc2ccccc2N1C(=O)COc1ccc2ccccc2c1` (centres unmarked) [Compound 18], the EC50 at 69 h is above 50000 nM.
`CNC(=O)C1Cc2ccccc2CN1C(=O)COc1ccc(F)cc1` (centres unmarked) [Compound 66] gave an EC50 at 69 h above 50000 nM.
The same measure, in the same setting: the value for `CCNC(=O)C1Cc2ccccc2N1C(=O)CCC1CCCC1` (centres unmarked) [Compound 23] was above 50000 nM; that for `CC(C)Oc1ccc(C(=O)N2c3ccccc3CC2C(N)=O)cc1` (centres unmarked) [Compound 25] was above 50000 nM.
Same read-out and setting: the value for `CNC(=O)C1Cc2cc(-c3ccncc3)ccc2N1C(=O)COc1ccc(F)cc1` (centres unmarked) [Compound 62] was above 50000 nM; that for `[2H]c1c([2H])c([2H])c(OCC(=O)N2c3ccccc3C[C@@H]2C(=O)NC)c([2H])c1[2H]` [Compound 38] was above 50000 nM.
Compound `CN(C)C(=O)C1Cc2ccccc2N1C(=O)COc1ccc(Cl)cc1` (centres unmarked) [Compound 48] returned an EC50 at 69 h above 50000 nM.
The same measure, in the same setting: the value for `CNC(=O)[C@H]1Cc2cc(F)ccc2N1C(=O)COc1ccc(F)cc1` [Compound 56] was above 50000 nM; that for `CCOc1ccc(OCC(=O)N2c3ccccc3CC2C(=O)NC)cc1` (centres unmarked) [Compound 17] was above 50000 nM.
On the same count and under the same terms, next, `CNC(=O)C1Cc2ccccc2N1C(=O)COCc1ccccc1` (centres unmarked) [Compound 28]: above 50000 nM; `CNC(=O)C1Cc2ccccc2N1C(=O)Cc1ccccc1` (centres unmarked) [Compound 21]: above 15000 nM.
Still for that read-out and setting: the value for `Cc1cccc(OCC(=O)N2c3ccccc3CC2C(N)=O)c1` (centres unmarked) [Compound 24] was above 50000 nM.
With `CNC(=O)C1Cc2ccccc2N1C(=O)Cc1cccs1` (centres unmarked) [Compound 20], the concentration giving a half-maximal response (EC50) at 69 h is above 50000 nM.
The same measure, in the same setting: next, `CNC(=O)C1Cc2ccccc2N1C(=O)COc1cccc(OC)c1` (centres unmarked) [Compound 19]: above 50000 nM; `CNC(=O)C1Cc2cc(-c3ccccc3)ccc2N1C(=O)COc1ccc(F)cc1` (centres unmarked) [Compound 61]: above 50000 nM; `CCNC(=O)C1Cc2ccccc2N1C(=O)COc1cccc(C)c1` (centres unmarked) [Compound 22]: above 50000 nM.
Still for that read-out and setting: next, `CNC(=O)[C@H]1Cc2ccccc2N1C(=O)Cc1ccc(Cl)c(F)c1` [Compound 45]: above 50000 nM; `CNC(=O)C1Cc2ccccc2N1C(=O)COc1ccc(Cl)c(Cl)c1` (centres unmarked) [Compound 30]: above 50000 nM.
On the same count and under the same terms, the value for `CNC(=O)C1Cc2ccccc2N1C(=O)Cc1ccc(F)c(F)c1` (centres unmarked) [Compound 46] was above 50000 nM.

The record behind these values is paper PMC4601051, “Discovery of Indoline-2-carboxamide Derivatives as a New Class of Brain-Penetrant Inhibitors of Trypanosoma brucei” (Journal of Medicinal Chemistry, 2015).
